Measured values published in PubChem BioAssay AID256 (DTP/NCI, 2004).
Inconclusive results and toxic doses are left out. The calls were made as follows: active = survival T/C of 150% or more; inactive = T/C below 125% in these data.

Tested on: CD2F1 mice, L1210 leukemia ip, survival T/C
Assay: NCI In Vivo Anticancer Drug Screen. Data for tumor model L1210 Leukemia (intraperitoneal) in CD2F1 (CDF1) mice
Conditions: higher = longer survival
Procedure, shortened: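 Vehicle-treated tumor-bearing mice served as controls (C) for compound-treated mice (T). Reported figure is T divided by C.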

[1] = endpoint: mean survival time, dose: 100.0 mg/kg/injection, schedule: Q01DX001 (ip), vehicle: saline with Tween-80
[2] = endpoint: mean survival time, dose: 100.0 mg/kg/injection, schedule: Q01DX009 (ip), vehicle: saline with Tween-80
[3] = endpoint: mean survival time, dose: 100.0 mg/kg/injection, schedule: Q04DX003 (ip), vehicle: saline
[4] = endpoint: mean survival time, dose: 200.0 mg/kg/injection, schedule: Q01DX001 (ip), vehicle: saline with Tween-80
[5] = endpoint: mean survival time, dose: 200.0 mg/kg/injection, schedule: Q01DX009 (ip), vehicle: saline with Tween-80
[6] = endpoint: mean survival time, dose: 200.0 mg/kg/injection, schedule: Q04DX003 (ip), vehicle: saline
[7] = endpoint: mean survival time, dose: 400.0 mg/kg/injection, schedule: Q01DX001 (ip), vehicle: saline with Tween-80
[8] = endpoint: mean survival time, dose: 400.0 mg/kg/injection, schedule: Q01DX009 (ip), vehicle: saline with Tween-80
[9] = endpoint: mean survival time, dose: 400.0 mg/kg/injection, schedule: Q04DX003 (ip), vehicle: saline
[10] = endpoint: mean survival time, dose: 50.0 mg/kg/injection, schedule: Q04DX003 (ip), vehicle: saline with Tween-80
[11] = endpoint: mean survival time, dose: 100.0 mg/kg/injection, schedule: Q04DX003 (ip), vehicle: saline with Tween-80
[12] = endpoint: mean survival time, dose: 200.0 mg/kg/injection, schedule: Q04DX003 (ip), vehicle: saline with Tween-80
[13] = endpoint: mean survival time, dose: 12.5 mg/kg/injection, schedule: Q01DX009 (ip), vehicle: water
[14] = endpoint: mean survival time, dose: 25.0 mg/kg/injection, schedule: Q01DX009 (ip), vehicle: water
[15] = endpoint: mean survival time, dose: 400.0 mg/kg/injection, schedule: Q04DX003 (ip), vehicle: saline with Tween-80
[16] = endpoint: mean survival time, dose: 100.0 mg/kg/injection, schedule: Q04DX002 (ip), vehicle: saline with Tween-80
[17] = endpoint: mean survival time, dose: 200.0 mg/kg/injection, schedule: Q04DX002 (ip), vehicle: saline with Tween-80
[18] = endpoint: mean survival time, dose: 400.0 mg/kg/injection, schedule: Q04DX002 (ip), vehicle: saline with Tween-80
[19] = endpoint: mean survival time, dose: 50.0 mg/kg/injection, schedule: Q01DX009 (ip), vehicle: saline with Tween-80

Measured: T/C

CCOC(=O)Nc1cccc2c1-c1ccccc1/C2=N\NC(N)=S
inactive: endpoint: mean survival time, dose: 50.0 mg/kg/injection, schedule: Q01DX001 (ip), vehicle: carboxymethylcellulose (CMC) 102 % of control | endpoint: mean survival time, dose: 100.0 mg/kg/injection, schedule: Q01DX001 (ip), vehicle: carboxymethylcellulose (CMC) 104 % of control | endpoint: mean survival time, dose: 200.0 mg/kg/injection, schedule: Q01DX001 (ip), vehicle: carboxymethylcellulose (CMC) 98 % of control | endpoint: mean survival time, dose: 400.0 mg/kg/injection, schedule: Q01DX001 (ip), vehicle: carboxymethylcellulose (CMC) 98 % of control

CSc1[nH]c2ncnc(Cl)c2c1C#N
inactive: endpoint: mean survival time, dose: 75.0 mg/kg/injection, schedule: Q01DX001 (ip), vehicle: saline 100 % of control | endpoint: mean survival time, dose: 150.0 mg/kg/injection, schedule: Q01DX001 (ip), vehicle: saline 94 % of control

CCOC(=O)c1csc(-c2csc(CCNC(=O)c3ccccc3)n2)n1
inactive: [1] 97 % of control | [2] 102 % of control | [3] 96 % of control | [4] 98 % of control | [5] 100 % of control | [6] 101 % of control | [7] 101 % of control | [8] 96 % of control | [9] 95 % of control

Cc1cn(C2CC(O)C(CO)O2)c(=O)nc1NC1CCCCCCCCCCC1 (stereo not drawn)
inactive: endpoint: median survival time, dose: 12.5 mg/kg/injection, schedule: Q01DX005 (ip), vehicle: distilled water + Tween-80 103 % of control | endpoint: median survival time, dose: 25.0 mg/kg/injection, schedule: Q01DX005 (ip), vehicle: distilled water + Tween-80 102 % of control | endpoint: median survival time, dose: 50.0 mg/kg/injection, schedule: Q01DX005 (ip), vehicle: distilled water + Tween-80 96 % of control | endpoint: median survival time, dose: 100.0 mg/kg/injection, schedule: Q01DX005 (ip), vehicle: distilled water + Tween-80 89 % of control

C/C=C(\C)c1cc(=O)c2c(C)cc3c(c2o1)C(OC)(OC(C)=O)c1c(O)c(C2CC(C)(N(C)C)C(OC(C)=O)C(C)O2)cc(C2CC(N(C)C)C(OC(C)=O)C(C)O2)c1C3=O (stereo not drawn)
inactive: [10] 112 % of control | [11] 110 % of control | [3] 109 % of control | [12] 97 % of control | [6] 91 % of control

O=c1c(Cl)c2cc3c(cc2c2ccccc12)nc1ccccc1n3Cc1ccc([N+](=O)[O-])cc1
inactive: [3] 95 % of control | [6] 106 % of control | [9] 91 % of control

[Cl][Pt+2][Cl].[NH-]c1cccc(C(F)(F)F)c1.[NH-]c1cccc(C(F)(F)F)c1
inactive: endpoint: mean survival time, dose: 12.5 mg/kg/injection, schedule: Q04DX003 (ip), vehicle: saline with Tween-80 95 % of control | endpoint: mean survival time, dose: 25.0 mg/kg/injection, schedule: Q04DX003 (ip), vehicle: saline with Tween-80 100 % of control | [10] 103 % of control

O=[N+]([O-])O.[Sc]
inactive: endpoint: mean survival time, dose: 6.25 mg/kg/injection, schedule: Q01DX009 (ip), vehicle: saline 93 % of control | endpoint: mean survival time, dose: 12.5 mg/kg/injection, schedule: Q01DX009 (ip), vehicle: saline 90 % of control | endpoint: mean survival time, dose: 25.0 mg/kg/injection, schedule: Q01DX009 (ip), vehicle: saline 88 % of control | endpoint: mean survival time, dose: 100.0 mg/kg/injection, schedule: Q01DX001 (ip), vehicle: saline 100 % of control | endpoint: mean survival time, dose: 400.0 mg/kg/injection, schedule: Q01DX001 (ip), vehicle: saline 93 % of control

CC1(C)CC(Br)(Cc2ccccc2)C(=O)c2ccccc21 (stereo not drawn)
inactive: [2] 95 % of control | [5] 94 % of control | [8] 94 % of control

COc1cc2ccc(/C=C\[N+](=O)[O-])cc2cc1OC
inactive: [13] 94 % of control | [14] 102 % of control | endpoint: mean survival time, dose: 50.0 mg/kg/injection, schedule: Q01DX009 (ip), vehicle: water 96 % of control

CC(C)(O)CCC1CC1CCC(C)(C)O (stereo not drawn)
inactive: [11] 97 % of control | [12] 89 % of control | [15] 97 % of control

S=C=NCc1cccc(CN=C=S)c1
inactive: endpoint: mean survival time, dose: 1.5 mg/kg/injection, schedule: Q01DX009 (ip), vehicle: saline with Tween-80 98 % of control | endpoint: mean survival time, dose: 3.0 mg/kg/injection, schedule: Q01DX009 (ip), vehicle: saline with Tween-80 101 % of control | endpoint: mean survival time, dose: 6.25 mg/kg/injection, schedule: Q04DX003 (ip), vehicle: saline 101 % of control | endpoint: mean survival time, dose: 12.5 mg/kg/injection, schedule: Q04DX003 (ip), vehicle: saline 103 % of control | endpoint: mean survival time, dose: 25.0 mg/kg/injection, schedule: Q04DX003 (ip), vehicle: saline 101 % of control

CCN(CC)C(=S)SCc1c(Cl)c(Cl)c(Cl)c(Cl)c1Cl
inactive: [16] 94 % of control | [17] 91 % of control | [18] 97 % of control

Nc1nc2c(c(=O)[nH]1)N=C(CCc1ccccc1)CO2
inactive: endpoint: mean survival time, dose: 25.0 mg/kg/injection, schedule: Q01DX009 (ip), vehicle: other 91 % of control | endpoint: mean survival time, dose: 50.0 mg/kg/injection, schedule: Q01DX009 (ip), vehicle: other 93 % of control | endpoint: mean survival time, dose: 100.0 mg/kg/injection, schedule: Q01DX009 (ip), vehicle: other 87 % of control | endpoint: mean survival time, dose: 200.0 mg/kg/injection, schedule: Q01DX009 (ip), vehicle: other 87 % of control

COc1ccc(CC2C(=O)OC(=O)C2Cc2ccc(OC)c(OC)c2)cc1OC (stereo not drawn)
inactive: [2] 104 % of control | [5] 108 % of control | [8] 96 % of control

O=C1C2C3C=CC(O3)C2C(=O)N1O (stereo not drawn)
inactive: [13] 97 % of control | [14] 96 % of control

Nc1ccc(NC(=O)COc2cccc(Cl)c2)cc1
inactive: [1] 90 % of control | [4] 90 % of control | [7] 95 % of control

CCOC(=O)c1ccc2c(ccc[n+]2C)c1
inactive: endpoint: mean survival time, dose: 37.5 mg/kg/injection, schedule: Q01DX009 (ip), vehicle: saline with Tween-80 112 % of control | endpoint: mean survival time, dose: 75.0 mg/kg/injection, schedule: Q01DX009 (ip), vehicle: saline with Tween-80 107 % of control | endpoint: mean survival time, dose: 150.0 mg/kg/injection, schedule: Q01DX009 (ip), vehicle: saline with Tween-80 103 % of control

[Br][Ge]([c]1ccccc1)([c]1ccccc1)[c]1ccccc1
inactive: [19] 91 % of control | [2] 91 % of control | [5] 86 % of control

O=C1C=C(c2ccccc2)CC1
inactive: [19] 104 % of control | [2] 93 % of control | [11] 101 % of control | [12] 100 % of control

CCCCCCC(C)NCC(O)COc1cccc(C)c1 (stereo not drawn)
inactive: endpoint: mean survival time, dose: 12.5 mg/kg/injection, schedule: Q04DX002 (ip), vehicle: saline with Tween-80 101 % of control | endpoint: mean survival time, dose: 25.0 mg/kg/injection, schedule: Q04DX002 (ip), vehicle: saline with Tween-80 96 % of control | endpoint: mean survival time, dose: 50.0 mg/kg/injection, schedule: Q04DX002 (ip), vehicle: saline with Tween-80 93 % of control

CCN(C(=O)Nc1ccc(Cl)cc1)c1ccccc1
inactive: [2] 97 % of control | [5] 100 % of control | [8] 96 % of control

c1ccc(Sc2cccc3ccccc23)cc1
inactive: [11] 102 % of control | [12] 93 % of control | [15] 91 % of control

COC(=O)C1CCC(C(=O)O)CC1 (stereo not drawn)
inactive: [2] 92 % of control | [11] 101 % of control | [5] 94 % of control | [12] 97 % of control | [8] 89 % of control | [15] 95 % of control

COC1OCC(O)C(O)C1O (stereo not drawn)
inactive: endpoint: mean survival time, dose: 100.0 mg/kg/injection, schedule: Q01DX009 (ip), vehicle: saline 101 % of control | endpoint: mean survival time, dose: 200.0 mg/kg/injection, schedule: Q01DX009 (ip), vehicle: saline 98 % of control | endpoint: mean survival time, dose: 400.0 mg/kg/injection, schedule: Q01DX009 (ip), vehicle: saline 98 % of control

Cc1ccc([Si](C)Cl)cc1
inactive: [2] 96 % of control | [5] 93 % of control

C=CCNC(=O)C[n+]1cccc(C(=O)NC)c1
inactive: [3] 100 % of control | [6] 102 % of control | [9] 102 % of control

Cc1ccccc1C1CCC(=O)OC1=O (stereo not drawn)
inactive: [1] 97 % of control | [16] 100 % of control | [4] 95 % of control | [17] 103 % of control | [7] 94 % of control | [18] 100 % of control

C=C1C(=O)OC(CCCCCCCCCCCCC)C1C(=O)O (stereo not drawn)
inactive: endpoint: mean survival time, dose: 10.0 mg/kg/injection, schedule: Q04DX002 (ip), vehicle: saline with Tween-80 108 % of control | endpoint: mean survival time, dose: 20.0 mg/kg/injection, schedule: Q04DX002 (ip), vehicle: saline with Tween-80 87 % of control

NC1CS(=O)(=O)CC1O (stereo not drawn)
inactive: [11] 98 % of control | [12] 96 % of control | [15] 95 % of control

CN1CCCC1CCNc1nc(Nc2ccc(Cl)c(Cl)c2)nc2ccc(Cl)cc12 (stereo not drawn)
inactive: endpoint: mean survival time, dose: 25.0 mg/kg/injection, schedule: Q01DX009 (ip), vehicle: saline with Tween-80 97 % of control | [1] 103 % of control

O=C(O)c1cc(-c2ccccc2)nc2ccccc12
inactive: [1] 103 % of control | [4] 97 % of control | [7] 102 % of control
